Laboratory results published in patent US20250009819A1, “NOVEL PROBIOTICS AND USE THEREOF” (PBLBIOLAB CO., LTD., priority 2021, published 2025).

Columns and labels:
BDNF = BDNF expression in SH-SY5Y cells; format: cell-based; details: LPS 200 ng/ml; lactic acid bacteria 1×10^4 CFU/ml; 24 h
Experimental: SH-SY5Y cells obtained from the Korean Cell Line Bank were cultured in DMEM medium supplemented with 10% FBS and 1% antibiotics, and dispensed at 2×10^6 cells per well in a 12-well plate. Then, LPS (200 ng/ml) was added to each well along with lactic acid bacteria (1×10^4 CFU/ml) and incubated for 24 h. The cells and supernatants were collected, sonicated and centrifuged, and the amount of BDNF in the supernatant was measured by ELISA kit.

IL-10 = IL-10 expression in LPS-treated macrophages (ELISA); format: cell-based, C57BL/6 mice; details: macrophages treated with lactic acid bacteria and LPS for 24 hours
Experimental: (§1) C57BL/6 mice (male, 6 weeks old, 20-23 g) were subjected to an intraperitoneal injection of 2 ml of sterile 4% thioglycolate solution, and after 96 hours, the mice were anesthetized and injected with 8 ml of RPMI 1640 medium through the peritoneal cavity. Then, after 5-10 minutes, the RPMI medium (macrophages) in the mouse peritoneal cavity was extracted, centrifuged at 1000 g for 10 minutes, and washed again with RPMI 1640 medium twice. Macrophages were seeded in 24-well plates at a count of 0.5×10^6 in each well, and treated with lactic acid bacteria and LPS, an inflammatory response-inducing substance, for 24 hours. TNF-α and IL-10 cytokine expression amount in the culture supernatant was then measured by ELISA Kit.

Neuropeptide Y (NPY) = Neuropeptide Y (NPY) expression in PC12 phaeochromocytoma cells; format: cell-based; details: LPS 200 ng/ml; lactic acid bacteria 1×10^4 CFU/ml; 24 hr
Experimental: PC12 cells obtained from the Korean Cell Line Bank were cultured in DMEM medium supplemented with 10% FBS and 1% antibiotics, and dispensed at 1×10^6 cells per well in a 12-well plate. Then, LPS (200 ng/ml) was added to each well along with lactic acid bacteria (1×10^4 CFU/ml) and incubated for 24 hr. The cells and supernatants were collected, sonicated and centrifuged, and the amount of NPY in the supernatant was measured by ELISA kit.

Clostridium difficile = Clostridium difficile proliferation in gut microbiota (PCR); format: cell-based; details: human feces culture; lactic acid bacteria 1×10^6 CFU/mL; anaerobic 24 hr
Experimental: Fresh human feces were suspended in anaerobic medium (GAM, Nissui Pharmaceutical Co., Ltd., Japan) and allowed to stand for 10 min. The supernatant was diluted with 10,000-fold anaerobic medium, 0.05 mL of the dilution was transplanted into 5 mL of freshly made anaerobic medium, and lactic acid bacteria (1×10^6 CFU/mL) were implanted and incubated anaerobically for 24 hr. This culture medium was divided into two, one was centrifuged (5000 rpm, 20 minutes), the precipitated DNA was isolated using the QIAamp DNA stool mini kit (Qiagen, Germany), and Clostridium difficile (primer: forward, 5′-[…]-3′ (SEQ ID NO: 4); reverse, 5′-[…]-3′ (SEQ ID NO: 5) was quantified by PCR. The reaction product was first treated at 95° C. for 30 seconds, followed by 42 cycles of 5 seconds at 95° C. and 30 seconds at 72° C. for analysis. In addition, one culture medium was sonicated, centrifuged, and filter-sterilized, and the amount of LPS in the supernatant was measured using an ELISA kit.

TNF-α = TNF-α expression in LPS-treated macrophages (ELISA); format: cell-based, C57BL/6 mice; details: macrophages treated with lactic acid bacteria and LPS for 24 hours
Experimental: as §1

gut microbiota = test: LPS production in gut microbiota (ELISA); format: cell-based; details: human feces culture; lactic acid bacteria 1×10^6 CFU/mL; anaerobic 24 hr
Experimental: Fresh human feces were suspended in anaerobic medium (GAM, Nissui Pharmaceutical Co., Ltd., Japan) and allowed to stand for 10 min. The supernatant was diluted with 10,000-fold anaerobic medium, 0.05 mL of the dilution was transplanted into 5 mL of freshly made anaerobic medium, and lactic acid bacteria (1×10^6 CFU/mL) were implanted and incubated anaerobically for 24 hr.

[1] = Antioxidant activity (DPPH, in vitro); format: biochemical; details: DPPH 0.2 mM; lactic acid bacteria suspension 1×10^8 CFU/ml; 37° C. 20 min
Experimental: DPPH (2,2-Diphenyl-1-picrylhydrazyl) was dissolved in ethanol to a concentration of 0.2 mM to prepare DPPH solution. Lactic acid bacteria suspension (1×10^8 CFU/ml) or vitamin C solution (1 g/ml) was added to 0.1 ml of the above DPPH solution and incubated at 37° C. for 20 min. The culture was centrifuged at 3000 rpm for 5 min to obtain a supernatant. The absorbance of the supernatant was then measured at 517 nm and the antioxidant activity of the lactic acid bacteria was calculated.

Substance	SHSY5Y cell Induction of BDNF expression (BDNF)	Macrophage Induction of IL-10 expression (IL-10)	PC12 cell Induction of NPY expression (Neuropeptide Y (NPY))	Gut microbiota Inhibition of difficile bacteria proliferation (Clostridium difficile)	Macrophage Inhibition of TNF-α expression (TNF-α)	Gut microbiota Inhibition of LPS production (gut microbiota)	Antioxidant activity [1]
Bifidobacterium adolescentis NK220	+ (weakly (+; >20-60%))	+ (weakly (+; >20-60%))	− (not or less than 20% (−; <20%))	+ (weakly (+; >20-60%))	+ (weakly (+; >20-60%))	− (not or less than 20% (−; <20%))	+ (weakly (+; >20-60%))
Bifidobacterium adolescentis NK221	− (not or less than 20% (−; <20%))	− (not or less than 20% (−; <20%))	+ (weakly (+; >20-60%))	+ (weakly (+; >20-60%))	− (not or less than 20% (−; <20%))	+ (weakly (+; >20-60%))	+ (weakly (+; >20-60%))
Bifidobacterium adolescentis NK222	− (not or less than 20% (−; <20%))	+ (weakly (+; >20-60%))	+ (weakly (+; >20-60%))	+ (weakly (+; >20-60%))	+ (weakly (+; >20-60%))	+ (weakly (+; >20-60%))	+ (weakly (+; >20-60%))
Bifidobacterium bifidum NK223	+ (weakly (+; >20-60%))	+ (weakly (+; >20-60%))	− (not or less than 20% (−; <20%))	− (not or less than 20% (−; <20%))	+ (weakly (+; >20-60%))	− (not or less than 20% (−; <20%))	+ (weakly (+; >20-60%))
Bifidobacterium bifidum NK224	− (not or less than 20% (−; <20%))	− (not or less than 20% (−; <20%))	+ (weakly (+; >20-60%))	+ (weakly (+; >20-60%))	− (not or less than 20% (−; <20%))	+ (weakly (+; >20-60%))	+ (weakly (+; >20-60%))
Bifidobacterium longum NK217	− (not or less than 20% (−; <20%))		− (not or less than 20% (−; <20%))	− (not or less than 20% (−; <20%))	+ (weakly (+; >20-60%))	− (not or less than 20% (−; <20%))	+ (weakly (+; >20-60%))
Bifidobacterium pseudocatenulatum NK229	+ (weakly (+; >20-60%))		− (not or less than 20% (−; <20%))	− (not or less than 20% (−; <20%))	+ (weakly (+; >20-60%))	− (not or less than 20% (−; <20%))	+ (weakly (+; >20-60%))
Lactobacillus gasseri NK188	− (not or less than 20% (−; <20%))	+ (weakly (+; >20-60%))	− (not or less than 20% (−; <20%))	+ (weakly (+; >20-60%))	+ (weakly (+; >20-60%))		+ (weakly (+; >20-60%))
Lactobacillus paracasei NK190	− (not or less than 20% (−; <20%))	− (not or less than 20% (−; <20%))	+ (weakly (+; >20-60%))	+ (weakly (+; >20-60%))	− (not or less than 20% (−; <20%))		+ (weakly (+; >20-60%))
Lactobacillus paracasei NK191	+ (weakly (+; >20-60%))	+ (weakly (+; >20-60%))	+ (weakly (+; >20-60%))	− (not or less than 20% (−; <20%))	− (not or less than 20% (−; <20%))		+ (weakly (+; >20-60%))
Lactobacillus paracasei NK192	− (not or less than 20% (−; <20%))	− (not or less than 20% (−; <20%))	− (not or less than 20% (−; <20%))	− (not or less than 20% (−; <20%))	− (not or less than 20% (−; <20%))		++ (strongly (++; >60-90%))
Lactobacillus sakei NK199	− (not or less than 20% (−; <20%))		− (not or less than 20% (−; <20%))	− (not or less than 20% (−; <20%))	+ (weakly (+; >20-60%))	− (not or less than 20% (−; <20%))	+ (weakly (+; >20-60%))
Lactococcus graminis NK206		− (not or less than 20% (−; <20%))	+ (weakly (+; >20-60%))		− (not or less than 20% (−; <20%))		+ (weakly (+; >20-60%))
Lactococcus graminis NK207	− (not or less than 20% (−; <20%))		− (not or less than 20% (−; <20%))	+ (weakly (+; >20-60%))		+ (weakly (+; >20-60%))	− (not or less than 20% (−; <20%))
